In patent publication US20240246918A1, “COMPOUNDS AND COMPOSITIONS AS EIF4E INHIBITORS AND THE USES THEREOF” (Ribometrix, Inc., priority 2022, published 2024) one finds IC50 data, which are given here for 34 molecules.

A word on the IC50: it is the concentration at which inhibition is half-maximal.

Each structure is given as a SMILES string. A value given as a limit tells only on which side of the number the result lay.

Assay [1] has as its system COLO 205 colorectal tumor cells. The assay is described as follows: Tumor cell viability inhibition assay (CellTiter-Glo 2.0, 72 hours). Format: cell-based. Conditions: Homo sapiens, COLO 205, 72 h, COLO 205 cell viability. In a few lines: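 IC50 derived by 4-parameter fitting after normalizing luminescence to DMSO and max-inhibition wells. Compounds tested as 11 concentrations in 4-fold steps on COLO 205 cells seeded at 1500 per well in RPMI-1640/10% FBS; ATP content measured with CellTiter-Glo 2.0 after 72 h.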
(Cellular ATP, detected with luciferase, serves as a proxy for viable cell number.)

In assay [2] the target is T1, human eIF4E protein (Homo sapiens, UniProt P06730).
T1 construct: purchased Novus NBP-45314
Description: Biochemical competitive binding assay (TR-FRET competition, EDA-m7GDP-ATTO-647N probe). To be noted: read-out: hEIF4E TR-FRET IC50. An outline of the steps:
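IC50 values come from 4-parameter fits of the normalized 665/620 nm TR-FRET ratio. Compound was first incubated 15 min with 4 nM recombinant His-eIF4E bound to 2.5 nM Eu-anti-His antibody, then 15 min with 5 nM m7GDP-ATTO-647N tracer, in pH 7.5 HEPES buffer with 100 mM KCl, Tween-20 and BSA.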

T1 sequence (P06730 whole entry): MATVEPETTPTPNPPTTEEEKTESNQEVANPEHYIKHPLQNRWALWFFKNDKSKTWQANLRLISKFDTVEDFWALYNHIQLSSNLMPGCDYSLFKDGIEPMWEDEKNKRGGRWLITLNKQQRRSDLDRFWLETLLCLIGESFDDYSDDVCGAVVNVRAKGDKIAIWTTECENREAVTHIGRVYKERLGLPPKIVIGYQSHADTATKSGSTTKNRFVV

With `COC1(C(F)(F)F)CCN([C@H]2CCc3nc(C)n(CCOc4ccc(Cl)cc4-c4cc(C)nc5c(C(=O)O)csc45)c(=O)c3C2)CC1` (single isomer, unassigned) [Compound 451], the IC50 in assay [1] is less than 5 µM; in assay [2], less than 0.1 µM.
The like results for `Cc1cc(-c2cc(Cl)ccc2OCCn2c(C)nc3c(c2=O)C[C@H](N2CCC(COC(F)(F)F)CC2)CC3)c2scc(C(=O)O)c2n1` (single isomer, unassigned) [Compound 452] were, in that order, less than 5 µM and less than 0.1 µM.
The like results for `Cc1cc(-c2cc(Cl)ccc2OCCn2c(C)nc3c(c2=O)C[C@H](N2CCC(c4ccn(C)n4)CC2)CC3)c2scc(C(=O)O)c2n1` (single isomer, unassigned) [Compound 453] were, in that order, greater than 20 µM and less than 0.1 µM.
With `Cc1cc(-c2cc(Cl)ccc2OCCn2c(C)nc3c(c2=O)C[C@@H](N2CCC(c4ccn(C)n4)CC2)CC3)c2scc(C(=O)O)c2n1` (single isomer, unassigned) [Compound 454], the half-inhibitory concentration (IC50) in assay [1] was less than 5 µM; in assay [2], less than 0.1 µM.
`Cc1cc(-c2cc(Cl)ccc2OCCn2c(C)nc3c(c2=O)C[C@H](N2CCC(c4cncc(S(=O)(=O)NC(C)(C)C)c4)CC2)CC3)c2scc(C(=O)O)c2n1` (single isomer, unassigned) [Compound 455]: the IC50 in assay [1] is less than 5 µM; in assay [2], less than 0.1 µM.
Take `Cc1cc(-c2cc(Cl)ccc2OCCn2c(C)nc3c(c2=O)C[C@@H](N2CCC(c4cncc(S(=O)(=O)NC(C)(C)C)c4)CC2)CC3)c2scc(C(=O)O)c2n1` (single isomer, unassigned) [Compound 456]: the half-inhibitory concentration (IC50) is 5 to 20 µM in assay [1] and less than 0.1 µM in assay [2].
The like results for `Cc1cc(-c2cc(Cl)ccc2OCCn2c(C)nc3c(c2=O)C[C@H](N2CCC[C@H](OC(F)(F)F)C2)CC3)c2scc(C(=O)O)c2n1` (single isomer, unassigned) [Compound 457] were, in that order, less than 5 µM and less than 0.1 µM.
Taken in the same sequence, the figures for `Cc1cc(-c2cc(Cl)ccc2OCCn2c(C)nc3c(c2=O)C[C@@H](N2CCC[C@@H](OC(F)(F)F)C2)CC3)c2scc(C(=O)O)c2n1` (single isomer, unassigned) [Compound 458] were less than 5 µM and less than 0.1 µM.
As to `Cc1cc(-c2cc(Cl)ccc2OCCn2c(C)nc3c(c2=O)CC(N2CCC(OC(F)(F)F)CC2)CC3)c2scc(C(=O)NS(=O)(=O)C(F)(F)F)c2n1` (single isomer, unassigned) [Compound 459], the half-maximal inhibitory concentration (IC50) in assay [1] is 5 to 20 µM; in assay [2], less than 0.1 µM.
Taken in the same sequence, the figures for `Cc1cc(-c2cc(Cl)ccc2OCCn2c(C)nc3c(c2=O)C[C@H](N2CCC(c4ncco4)CC2)CC3)c2scc(C(=O)O)c2n1` (single isomer, unassigned) [Compound 460] were less than 5 µM and less than 0.1 µM.
Turning to `Cc1cc(-c2cc(Cl)ccc2OCCn2c(C)nc3c(c2=O)C[C@@H](N2CCC(c4ncco4)CC2)CC3)c2scc(C(=O)O)c2n1` (single isomer, unassigned) [Compound 461], the results for the half-inhibitory concentration (IC50) in assay [1] and in assay [2] were less than 5 µM and less than 0.1 µM, respectively.
Taken in the same sequence, the figures for `Cc1cc(-c2cc(Cl)ccc2OCCn2c(C)nc3c(c2=O)C[C@H](N2CCC(c4ncn(C)n4)CC2)CC3)c2scc(C(=O)O)c2n1` (single isomer, unassigned) [Compound 462] were less than 5 µM and less than 0.1 µM.
Taken in the same sequence, the figures for `Cc1cc(-c2cc(Cl)ccc2OCCn2c(C)nc3c(c2=O)C[C@@H](N2CCC(c4ncn(C)n4)CC2)CC3)c2scc(C(=O)O)c2n1` (single isomer, unassigned) [Compound 463] were less than 5 µM and less than 0.1 µM.
The like results for `Cc1cc(-c2cc(Cl)ccc2OCCn2c(C)nc3c(c2=O)C[C@H](N2CCC[C@H](c4ncccc4F)C2)CC3)c2scc(C(=O)O)c2n1` (single isomer, unassigned) [Compound 464] were, in that order, less than 5 µM and less than 0.1 µM.
For the molecule `Cc1cc(-c2cc(Cl)ccc2OCCn2c(C)nc3c(c2=O)C[C@H](N2CCC[C@@H](c4ncccc4F)C2)CC3)c2scc(C(=O)O)c2n1` (single isomer, unassigned) [Compound 465], the half-maximal inhibitory concentration (IC50) was less than 5 µM in assay [1] and less than 0.1 µM in assay [2].
Taken in the same sequence, the figures for `Cc1cc(-c2cc(Cl)ccc2OCCn2c(C)nc3c(c2=O)C[C@@H](N2CCC[C@@H](c4ncccc4F)C2)CC3)c2scc(C(=O)O)c2n1` (single isomer, unassigned) [Compound 466] were less than 5 µM and less than 0.1 µM.
The like results for `Cc1cc(-c2cc(Cl)ccc2OCCn2c(C)nc3c(c2=O)C[C@@H](N2CCC[C@H](c4ncccc4F)C2)CC3)c2scc(C(=O)O)c2n1` (single isomer, unassigned) [Compound 467] were, in that order, less than 5 µM and less than 0.1 µM.
The like results for `Cc1cc(-c2cc(Cl)ccc2OCCn2c(C)nc3c(c2=O)CC(N(C)C24CC5CC(CC(C5)C2)C4)CC3)c2scc(C(=O)O)c2n1` (single isomer, unassigned) [Compound 468] were, in that order, less than 5 µM and less than 0.1 µM.
As to `Cc1cc(-c2cc(Cl)ccc2OCCn2c(C)nc3c(c2=O)C[C@H](N2CCCCC(F)(F)C2)CC3)c2scc(C(=O)O)c2n1` (single isomer, unassigned) [Compound 469], the IC50 in assay [1] was less than 5 µM; in assay [2], less than 0.1 µM.
The like results for `Cc1cc(-c2cc(Cl)ccc2OCCn2c(C)nc3c(c2=O)C[C@@H](N2CCCCC(F)(F)C2)CC3)c2scc(C(=O)O)c2n1` (single isomer, unassigned) [Compound 470] were, in that order, less than 5 µM and less than 0.1 µM.
Taken in the same sequence, the figures for `Cc1cc(-c2cc(Cl)ccc2OCCn2c(C)nc3c(c2=O)C[C@H](N2CCC[C@@H](OC(F)(F)F)C2)CC3)c2scc(C(=O)O)c2n1` (single isomer, unassigned) [Compound 471] were less than 5 µM and less than 0.1 µM.
In the case of `Cc1cc(-c2cc(Cl)ccc2OCCn2c(C)nc3c(c2=O)C[C@@H](N2CCC[C@H](OC(F)(F)F)C2)CC3)c2scc(C(=O)O)c2n1` (single isomer, unassigned) [Compound 472], the IC50 is less than 5 µM in assay [1] and less than 0.1 µM in assay [2].
`Cc1cc(-c2cc(Cl)ccc2OCCn2c(C)nc3c(c2=O)C[C@H](N2CCC(n4cccn4)CC2)CC3)c2scc(C(=O)O)c2n1` (single isomer, unassigned) [Compound 473]: the half-inhibitory concentration (IC50) was less than 5 µM in assay [1] and less than 0.1 µM in assay [2].
The like results for `Cc1cc(-c2cc(Cl)ccc2OCCn2c(C)nc3c(c2=O)C[C@@H](N2CCC(n4cccn4)CC2)CC3)c2scc(C(=O)O)c2n1` (single isomer, unassigned) [Compound 474] were, in that order, less than 5 µM and less than 0.1 µM.
The like results for `Cc1cc(-c2cc(Cl)ccc2OCCn2c(C)nc3c(c2=O)C[C@H](N2CCC(c4nccs4)CC2)CC3)c2scc(C(=O)O)c2n1` (single isomer, unassigned) [Compound 475] were, in that order, less than 5 µM and less than 0.1 µM.
Take `Cc1cc(-c2cc(Cl)ccc2OCCn2c(C)nc3c(c2=O)C[C@@H](N2CCC(c4nccs4)CC2)CC3)c2scc(C(=O)O)c2n1` (single isomer, unassigned) [Compound 476]: the IC50 in assay [1] is less than 5 µM; in assay [2] it was less than 0.1 µM.
Turning to `Cc1cc(-c2cc(Cl)ccc2OCCn2c(C)nc3c(c2=O)C[C@H](N2CCO[C@@H](COC(F)(F)F)C2)CC3)c2scc(C(=O)O)c2n1` (single isomer, unassigned) [Compound 477], the IC50 in assay [1] is less than 5 µM; in assay [2], less than 0.1 µM.
The like results for `Cc1cc(-c2cc(Cl)ccc2OCCn2c(C)nc3c(c2=O)C[C@H](N2CCO[C@H](COC(F)(F)F)C2)CC3)c2scc(C(=O)O)c2n1` (single isomer, unassigned) [Compound 478] were, in that order, less than 5 µM and less than 0.1 µM.
In the case of `Cc1cc(-c2cc(Cl)ccc2OCCn2c(C)nc3c(c2=O)C[C@@H](N2CCO[C@@H](COC(F)(F)F)C2)CC3)c2scc(C(=O)O)c2n1` (single isomer, unassigned) [Compound 479], the concentration for half-maximal inhibition (IC50) in assay [1] was less than 5 µM; in assay [2], less than 0.1 µM.
Taken in the same sequence, the figures for `Cc1cc(-c2cc(Cl)ccc2OCCn2c(C)nc3c(c2=O)C[C@@H](N2CCO[C@H](COC(F)(F)F)C2)CC3)c2scc(C(=O)O)c2n1` (single isomer, unassigned) [Compound 480] were less than 5 µM and less than 0.1 µM.
Taken in the same sequence, the figures for `Cc1csc([C@@H]2CCCN([C@H]3CCc4nc(C)n(CCOc5ccc(Cl)cc5-c5cc(C)nc6c(C(=O)O)csc56)c(=O)c4C3)C2)n1` (single isomer, unassigned) [Compound 481] were less than 5 µM and less than 0.1 µM.
`Cc1csc([C@H]2CCCN([C@H]3CCc4nc(C)n(CCOc5ccc(Cl)cc5-c5cc(C)nc6c(C(=O)O)csc56)c(=O)c4C3)C2)n1` (single isomer, unassigned) [Compound 482]: the IC50 in assay [1] is less than 5 µM; in assay [2], less than 0.1 µM.
Consider `Cc1csc([C@H]2CCCN([C@@H]3CCc4nc(C)n(CCOc5ccc(Cl)cc5-c5cc(C)nc6c(C(=O)O)csc56)c(=O)c4C3)C2)n1` (single isomer, unassigned) [Compound 483], for which the IC50 in assay [1] is less than 5 µM; in assay [2], less than 0.1 µM.
Taken in the same sequence, the figures for `Cc1csc([C@@H]2CCCN([C@@H]3CCc4nc(C)n(CCOc5ccc(Cl)cc5-c5cc(C)nc6c(C(=O)O)csc56)c(=O)c4C3)C2)n1` (single isomer, unassigned) [Compound 484] were less than 5 µM and less than 0.1 µM.
